Experimental findings from patent publication US10004701B2, “Methods and compositions for treating infection” (UNIVERSITY OF ROCHESTER, priority 2012, dated 2018) are described below.

What all share (assay): AK assay 384-well format, Prestwick library screening
The subject of one assay is E. faecium. It is filed as cell-based, Enterococcus faecium. As to conditions: for fold induction at 50 µM: Enterococcus faecium, 3 h.
The subject of a further assay is E. cloacae. It is filed as cell-based, Enterobacter cloacae. As to conditions: for fold induction at 50 µM: Enterobacter cloacae, 3 h.
The subject of a further assay is K. pneumoniae. It is filed as cell-based, Klebsiella pneumoniae. The following applies: for fold induction at 50 µM: Klebsiella pneumoniae, 3 h.
In assay [1] the test system is S. aureus strain USA300-0114. It is filed as cell-based, Staphylococcus aureus. As to conditions: for fold induction at 50 µM: Staphylococcus aureus, USA300, 3 h.
The test system of a further assay is P. aeruginosa. It is filed as cell-based, Pseudomonas aeruginosa. As to conditions: for fold induction at 50 µM: Pseudomonas aeruginosa, 3 h.
Assay [2] concerns A. baumannii strain 98-37-09. It is filed as cell-based, Acinetobacter baumannii. As to conditions: for fold induction at 50 µM: Acinetobacter baumannii, 983709, 3 h.
The subject of a further assay is E. coli. It is filed as cell-based, Escherichia coli. The following applies: for fold induction at 50 µM: Escherichia coli, 3 h.
The mark [3] stands for this setting: 50 μM final drug concentration, planktonic, […], read-out: AK-based Prestwick Library Screening Results, E. faecium (fold increase in extracellular AK activity).
Where [4] appears, read: 50 μM final drug concentration, planktonic, […], read-out: AK-based Prestwick Library Screening Results, E. cloacae (fold increase in extracellular AK activity).
[5] abbreviates: 50 μM final drug concentration, planktonic, […], read-out: AK-based Prestwick Library Screening Results, K. pneumoniae (fold increase in extracellular AK activity).
[6] abbreviates: 50 μM final drug concentration, planktonic, […], read-out: AK-based Prestwick Library Screening Results, S. aureus (fold increase in extracellular AK activity).
[7] abbreviates: 50 μM final drug concentration, planktonic, […], read-out: AK-based Prestwick Library Screening Results, P. aeruginosa (fold increase in extracellular AK activity).
[8] abbreviates: 50 μM final drug concentration, planktonic, […], read-out: AK-based Prestwick Library Screening Results, A. baumannii (fold increase in extracellular AK activity).
Where [9] appears, read: 50 μM final drug concentration, planktonic, […], read-out: AK-based Prestwick Library Screening Results, E. coli (fold increase in extracellular AK activity).
Where [10] appears, read: planktonic E. faecium, 50 μM final drug concentration, 384-well, cutoff for positive-scoring molecules 3-fold increase, read-out: AK-based Prestwick Library Screening Results: E. faecium (increase in extracellular AK activity).
[11] abbreviates: planktonic E. cloacae, 50 μM final drug concentration, 384-well, cutoff for positive-scoring molecules 3-fold increase, read-out: AK-based Prestwick Library Screening Results: E. cloacae (increase in extracellular AK activity).
Where [12] appears, read: planktonic K. pneumoniae, 50 μM final drug concentration, 384-well, cutoff for positive-scoring molecules 3-fold increase, read-out: AK-based Prestwick Library Screening Results: K. pneumoniae (increase in extracellular AK activity).
The mark [13] stands for this setting: planktonic S. aureus, 50 μM final drug concentration, 384-well, cutoff for positive-scoring molecules 3-fold increase, read-out: AK-based Prestwick Library Screening Results: S. aureus (increase in extracellular AK activity).
The mark [14] stands for this setting: planktonic P. aeruginosa, 50 μM final drug concentration, 384-well, cutoff for positive-scoring molecules 3-fold increase, read-out: AK-based Prestwick Library Screening Results: P. aeruginosa (increase in extracellular AK activity).
The mark [15] stands for this setting: planktonic A. baumannii, 50 μM final drug concentration, 384-well, cutoff for positive-scoring molecules 3-fold increase, read-out: AK-based Prestwick Library Screening Results: A. baumannii (increase in extracellular AK activity).
The mark [16] stands for this setting: planktonic E. coli, 50 μM final drug concentration, 384-well, cutoff for positive-scoring molecules 3-fold increase, read-out: AK-based Prestwick Library Screening Results: E. coli (increase in extracellular AK activity).

SMILES strings stand for the structures. Where a name gives a salt, the structure may show the parent alone. Read-outs that look alike come from different tables or passages of the source.

Regarding `COc1c(O[C@@H]2O[C@H](CO)[C@@H](O)[C@H](O)[C@H]2O)cc2c(c1OC)-c1ccc(SC)c(=O)cc1[C@@H](NC(C)=O)CC2` [Thiocolchicoside], the fold induction at 50 µM with E. faecium (setting [3]) worked out at 1.1; in the assay with E. cloacae (setting [4]), 1.7; in the assay on K. pneumoniae (setting [5]), 0.8; in assay [1] (setting [6]) it was 1.2; in the assay with P. aeruginosa (setting [7]), 1; in assay [2] (setting [8]), 0.9. In addition, the fold induction at 50 µM in the assay with E. coli (setting [9]) was determined as 1.
For the compound `S=C(NC1CCCCC1)N1CCC(c2cnc[nH]2)CC1` [Thioperamide maleate], the fold induction at 50 µM was found to be 1 in the assay on E. faecium (50 μM final drug concentration, cutoff for positive-scoring molecules 3-fold increase, read-out: AK-based Prestwick Library Screening Results, E. faecium (fold increase in extracellular AK activity)); 1.6 in the assay with E. cloacae (50 μM final drug concentration, cutoff for positive-scoring molecules 3-fold increase, read-out: AK-based Prestwick Library Screening Results, E. cloacae (fold increase in extracellular AK activity)); 1 in the assay with K. pneumoniae (50 μM final drug concentration, cutoff for positive-scoring molecules 3-fold increase, read-out: AK-based Prestwick Library Screening Results, K. pneumoniae (fold increase in extracellular AK activity)); 1.1 in assay [1] (50 μM final drug concentration, cutoff for positive-scoring molecules 3-fold increase, read-out: AK-based Prestwick Library Screening Results, S. aureus (fold increase in extracellular AK activity)); 1.3 with P. aeruginosa (50 μM final drug concentration, cutoff for positive-scoring molecules 3-fold increase, read-out: AK-based Prestwick Library Screening Results, P. aeruginosa (fold increase in extracellular AK activity)); 1 in assay [2] (50 μM final drug concentration, cutoff for positive-scoring molecules 3-fold increase, read-out: AK-based Prestwick Library Screening Results, A. baumannii (fold increase in extracellular AK activity)). Also, the fold induction at 50 µM with E. coli (50 μM final drug concentration, […], read-out: AK-based Prestwick Library Screening Results, E. coli (fold increase in extracellular AK activity)) was found to be 1.2.
Take `CSc1ccc2c(c1)N(CCC1CCCCN1C)c1ccccc1S2` (centres unmarked) [Thioridazine hydrochloride]: the fold induction at 50 µM in the assay with E. faecium (setting [10]) is 1; in the assay on E. cloacae (setting [11]), 1.5; in the assay on K. pneumoniae (setting [12]), 1.3; in assay [1] (setting [13]), 1.3; with P. aeruginosa (setting [14]) it was 1.1; in assay [2] (setting [15]) it was 2.9. Besides, in the assay on E. coli (setting [16]), the fold induction at 50 µM was 1.6.
For `O=C(O)CNC(=O)C(CS)Cc1ccccc1` (centres unmarked) [Thiorphan], the fold induction at 50 µM turned out to be 1 in the assay on E. faecium (read-out: AK-based Prestwick Library Screening Results, E. faecium (fold increase in extracellular AK activity)); 1.5 in the assay with E. cloacae (read-out: AK-based Prestwick Library Screening Results, E. cloacae (fold increase in extracellular AK activity)); 1.3 in the assay with K. pneumoniae (read-out: AK-based Prestwick Library Screening Results, K. pneumoniae (fold increase in extracellular AK activity)); 1.3 in assay [1] (read-out: AK-based Prestwick Library Screening Results, S. aureus (fold increase in extracellular AK activity)); 1.2 in the assay with P. aeruginosa (read-out: AK-based Prestwick Library Screening Results, P. aeruginosa (fold increase in extracellular AK activity)); 1.2 in assay [2] (read-out: AK-based Prestwick Library Screening Results, A. baumannii (fold increase in extracellular AK activity)). Also, in the assay on E. coli (read-out: AK-based Prestwick Library Screening Results, E. coli (fold increase in extracellular AK activity)), the fold induction at 50 µM is 1.2.
Consider `C=C(NC(=O)C(=C)NC(=O)c1csc(C2=N[C@@H]3c4csc(n4)[C@H]4NC(=O)c5csc(n5)[C@H]([C@](C)(O)[C@@H](C)O)NC(=O)[C@H]5CSC(=N5)/C(=C/C)NC(=O)[C@H]([C@@H](C)O)NC(=O)c5csc(n5)[C@]3(CC2)NC(=O)[C@H](C)NC(=O)C(=C)NC(=O)[C@H](C)NC(=O)[C@H]([C@@H](C)CC)N[C@@H]2C=Cc3c([C@H](C)O)cc(nc3[C@H]2O)C(=O)O[C@@H]4C)n1)C(N)=O` [Thiostrepton], for which the fold induction at 50 µM in the assay on E. faecium (setting [3]) amounted to 1; with E. cloacae (setting [4]) it was 1.4; in the assay on K. pneumoniae (setting [5]), 1; in assay [1] (setting [6]), 0.4; with P. aeruginosa (setting [7]) it was 0.9; in assay [2] (setting [8]) it was 1.1. The fold induction at 50 µM in the assay with E. coli (setting [9]) came to 1.3.
For the compound `N[C@@H](Cc1cc(I)c(Oc2cc(I)c(O)c(I)c2)c(I)c1)C(=O)O` [Thyroxine (L)], in the assay with E. faecium (planktonic E. faecium, 50 μM final drug concentration, 384-well, […]), the “AK-based Prestwick Library Screening Results: E. faecium (increase in extracellular AK activity)” value was 1.0. In addition, the “AK-based Prestwick Library Screening Results: E. cloacae (increase in extracellular AK activity)” value in the assay with E. cloacae (planktonic E. cloacae, 50 μM final drug concentration, 384-well, […]) amounted to 0.3. For the same compound, the “AK-based Prestwick Library Screening Results: K. pneumoniae (increase in extracellular AK activity)” value in the assay on K. pneumoniae (planktonic K. pneumoniae, 50 μM final drug concentration, 384-well, […]) came out at 0.4. In assay [1] (planktonic S. aureus, 50 μM final drug concentration, 384-well, […]), the “AK-based Prestwick Library Screening Results: S. aureus (increase in extracellular AK activity)” value is reported as 0.2. Besides, the “AK-based Prestwick Library Screening Results: P. aeruginosa (increase in extracellular AK activity)” value in the assay on P. aeruginosa (planktonic P. aeruginosa, 50 μM final drug concentration, 384-well, […]) was determined as 0.4. For the same compound, the “AK-based Prestwick Library Screening Results: A. baumannii (increase in extracellular AK activity)” value in assay [2] (planktonic A. baumannii, 50 μM final drug concentration, 384-well, […]) is given as 0.4. Also, in the assay with E. coli (planktonic E. coli, 50 μM final drug concentration, 384-well, […]), the “AK-based Prestwick Library Screening Results: E. coli (increase in extracellular AK activity)” value was 0.5.
With `c1ccc2[nH]c(-c3cscn3)nc2c1` [Tiabendazole], the fold induction at 50 µM is 0.5 with E. faecium (50 μM final drug concentration, planktonic, cutoff for positive 3-fold increase, read-out: AK-based Prestwick Library Screening Results, E. faecium (fold increase in extracellular AK activity)); 1.3 with E. cloacae (50 μM final drug concentration, planktonic, cutoff for positive 3-fold increase, read-out: AK-based Prestwick Library Screening Results, E. cloacae (fold increase in extracellular AK activity)); 0.4 in the assay with K. pneumoniae (50 μM final drug concentration, planktonic, cutoff for positive 3-fold increase, read-out: AK-based Prestwick Library Screening Results, K. pneumoniae (fold increase in extracellular AK activity)); 0.6 in assay [1] (50 μM final drug concentration, planktonic, cutoff for positive 3-fold increase, read-out: AK-based Prestwick Library Screening Results, S. aureus (fold increase in extracellular AK activity)); 0.6 with P. aeruginosa (50 μM final drug concentration, planktonic, cutoff for positive 3-fold increase, read-out: AK-based Prestwick Library Screening Results, P. aeruginosa (fold increase in extracellular AK activity)); 0.5 in assay [2] (50 μM final drug concentration, planktonic, cutoff for positive 3-fold increase, read-out: AK-based Prestwick Library Screening Results, A. baumannii (fold increase in extracellular AK activity)). Also, the fold induction at 50 µM in the assay with E. coli (50 μM final drug concentration, planktonic, cutoff for positive 3-fold increase, read-out: AK-based Prestwick Library Screening Results, E. coli (fold increase in extracellular AK activity)) stood at 0.6.
For the compound `CCN(CC)CCNC(=O)c1cc(S(C)(=O)=O)ccc1OC` [Tiapride hydrochloride], the fold induction at 50 µM was 1.1 in the assay with E. faecium (setting [10]); 1.5 in the assay with E. cloacae (setting [11]); 0.9 in the assay on K. pneumoniae (setting [12]); 1 in assay [1] (setting [13]); 1.2 in the assay on P. aeruginosa (setting [14]); 1.1 in assay [2] (setting [15]). Moreover, the fold induction at 50 µM in the assay on E. coli (setting [16]) was found to be 1.4.
